This is an account of results in US7893256B2, “Azabicycloalkane compounds” (Theravance, Inc., priority 2003, dated 2011).

Bounds are passed on as bounds.

The target of assay [1] is T1, hM2 receptor (Homo sapiens, UniProt P08172).
T1 construct: expressed in transfected cells; host or cells: CHO-K1 cells
T1 sequence (P08172 1-466): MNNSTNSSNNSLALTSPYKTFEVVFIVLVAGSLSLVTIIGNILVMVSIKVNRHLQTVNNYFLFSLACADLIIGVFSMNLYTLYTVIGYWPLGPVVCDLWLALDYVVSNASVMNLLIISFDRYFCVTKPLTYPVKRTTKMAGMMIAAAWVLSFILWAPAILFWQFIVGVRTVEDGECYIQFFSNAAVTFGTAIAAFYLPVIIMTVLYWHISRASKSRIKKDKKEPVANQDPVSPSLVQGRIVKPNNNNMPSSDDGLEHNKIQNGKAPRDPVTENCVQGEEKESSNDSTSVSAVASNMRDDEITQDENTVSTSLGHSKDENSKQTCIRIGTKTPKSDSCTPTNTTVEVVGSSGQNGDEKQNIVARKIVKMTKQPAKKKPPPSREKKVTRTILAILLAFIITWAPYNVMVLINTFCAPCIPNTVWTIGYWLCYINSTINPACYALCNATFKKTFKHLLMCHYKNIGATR
As to the kind of experiment: Blockade of agonist-mediated inhibition of cAMP accumulation (Assay Test Procedure D, A). The note with it: CHO-K1 cells expressing the hM2 receptor; read-out: Ki value for blockade of oxotremorine-inhibition of forskolin-mediated cAMP accumulation. In kind it is cell-based. As to the method:
In this assay, the functional potency of a test compound was determined by measuring the ability of the test compound to block oxotremorine-inhibition of forskolin-mediated cAMP accumulation in CHO-K1 cells expressing the hM2 receptor. cAMP assays were performed in a radioimmunoassay format using the Flashplate Adenylyl Cyclase Activation Assay System with ^125I-cAMP (NEN SMP004B, PerkinElmer Life Sciences Inc., Boston, Mass.), according to the manufacturer's instructions. Cells were rinsed once with dPBS and lifted with Trypsin-EDTA solution (0.05% trypsin/0.53 mM EDTA) as described in the Cell Culture and Membrane Preparation section above. The detached cells were washed twice by centrifugation at 650×g for five minutes in 50 mL dPBS. The cell pellet was then re-suspended in 10 mL dPBS, and the cells were counted with a Coulter Z1 Dual Particle Counter (Beckman Coulter, Fullerton, Calif.). […]
Reactions were incubated for 10 minutes at 37° C. and stopped by addition of 100 μL ice-cold detection buffer. Plates were sealed, incubated overnight at room temperature and counted the next morning on a PerkinElmer TopCount liquid scintillation counter (PerkinElmer Inc., Wellesley, Mass.). The amount of cAMP produced (pmol/well) was calculated based on the counts observed for the samples and cAMP standards, as described in the manufacturer's user manual. […]
A general note: Changes in cAMP serve as a functional read-out for many G protein-coupled receptors.

The target in assay [2] is T1, hM2 receptor. As to the kind of experiment: Blockade of agonist-mediated [35S]GTPγS binding (Assay Test Procedure D, B). The format is biochemical. The note with it: CHO-K1 cells expressing the hM2 receptor; read-out: Ki value for blockade of oxotremorine-stimulated [35S]GTPγS binding. The protocol:
In a second functional assay, the functional potency of test compounds was determined by measuring the ability of the compounds to block oxotremorine-stimulated [^35S]GTPγS binding in CHO-K1 cells expressing the hM2 receptor.
At the time of use, frozen membranes were thawed and then diluted in assay buffer with a final target tissue concentration of 5-10 μg protein per well. The membranes were briefly homogenized using a Polytron PT-2100 tissue disrupter and then added to the assay plates.
The EC90 value (effective concentration for 90% maximal response) for stimulation of [^35S]GTPγS binding by the agonist oxotremorine was, determined in each experiment.
To determine the ability of a test compound to inhibit oxotremorine-stimulated [^35S]GTPγS binding, the following was added to each well of 96 well plates: […] of assay buffer with [^35S]GTPγS (0.4 nM), 25 μL of oxotremorine (EC90) and GDP (3 uM), 25 μL of diluted test compound and 25 μL CHO cell membranes expressing the hM2 receptor. […] Microscint-20 scintillation liquid (50 μL) was added to each well, and each plate was sealed and radioactivity counted on a Topcounter (PerkinElmer). Data were analyzed by nonlinear regression analysis with the GraphPad Prism Software package (GraphPad Software, Inc., San Diego, Calif.) using the non-linear regression, one-site competition equation. […]
On the technique in general: Binding of GTPγS marks nucleotide exchange on a G protein.

Take `C[N+]1(CCCCCCCCCNC[C@H](O)c2ccc(O)c3[nH]c(=O)ccc23)C2CC(OC(=O)C(O)(c3cccs3)c3cccs3)CC1C1OC12.C[N+]1(CCCCCCCCCNC[C@H](O)c2ccc(O)c3[nH]c(=O)ccc23)C2CC(OC(=O)C(O)(c3cccs3)c3cccs3)CC1C1OC12.O=C([O-])C(F)(F)F.O=C([O-])C(F)(F)F` (stereo partly drawn) [Example 1, 7-(2-Hydroxy-2,2-dithiophen-2-ylacetoxy)-9-{9-[(R)-2-hydroxy-2-(8-hydroxy-2-oxo-1,2-dihydroquinolin-5-yl)ethylamino]nonyl}-9-methyl-3-oxa-9-azonia-tricyclo[3.3.1.0^2,4]nonane Ditrifluoroacetate]: the Ki at hM2 receptor [1] and on hM2 receptor [2] was less than 0.05 µM each time.

As a reminder, the Ki is a dissociation constant, usually derived from enzyme kinetics or from competition with a known ligand.
